Values quoted from earlier work in US20250235391A1, “Lip Balm Containing Caffeine, Nicotine or Testosterone” (Shear Kershman Laboratories, Inc., priority 2018, published 2025).

In the case of `CCCCCc1cc(O)c2c(c1)OC(C)(C)[C@@H]1CCC(C)=C[C@@H]21` [Dronabinol, A9-tetrahydrocannabinol], the “duration of action for psychoactive effects” value (after oral administration) is given as 4 to 6 h, the “duration of appetite stimulant effect” value (after oral administration) is given as ≥ 24 h and the “peak effect (time)” value (after oral administration) is given as 2 to 4 h. For the same compound, the maximal plasma levels (oral dosing of 20 mg in a sesame oil formulation) was “around 10 ng/ml”, the “administered dose reaching systemic circulation” value (oral, first pass hepatic metabolism and high lipid solubility) was 10-20% and the “absorbed after a single oral dose” value (single oral dose) was 90-95%.
